Laboratory results reported in ChEMBL document CHEMBL1156644, “Cembrane diterpenes from the gorgonian Leptogorgia laxa” (2008).

How the values were obtained:
Assay type in all cases: functional
HT-29 = assay: Cytotoxicity against human HT29 cells by SRB method
MDA-MB-231 = assay: Cytotoxicity against human MDA-MB-231 cells by SRB method
A549 = assay: Cytotoxicity against human A549 cells by SRB method

| Structure (SMILES) | GI50 (HT-29) | GI50 (MDA-MB-231) | GI50 (A549) |
| --- | --- | --- | --- |
| C=C(C)[C@@H]1CC/C(C)=C/CC/C(C)=C/C(=O)C[C@@]2(C)O[C@@H]2C1 [LEPTODIENONE B] | 10.9 µM | 6.3 µM | 5.6 µM |
| C=C(C)[C@@H]1CC/C(C)=C/CC/C(C)=C\C(=O)C[C@@]2(C)O[C@@H]2C1 [LEPTODIENONE A] | 14.9 µM | 16.2 µM | – |
